Results reported in patent US5523308A, “Peptidyl heterocycles useful in the treatment of thrombin related disorders” (priority 1995, dated 1996).

Assays:
human alpha-thrombin = target: T1, human alpha-thrombin (Homo sapiens, UniProt P00734); experiment: Thrombin-catalyzed hydrolysis of chromogenic substrate Spectozyme TH (in vitro enzyme assay); type: biochemical; conditions: 1 nM thrombin, 37° C., pH 7.4; for Ki: 5-100 μM Spectozyme TH, read-out: Thr Ki (listed in place of the IC50); for IC50: 50 μM Spectozyme TH, read-out: Thr IC50
T1 construct: commercial human alpha-thrombin (American Diagnostica); purchased American Diagnostica
Description: Thrombin-catalyzed hydrolysis rates were measured spectrophotometrically using commercial human alpha-thrombin (American Diagnostica), a chromogenic substrate (Spectozyme® TH (H-D-HHT-Ala-Arg-pNA.2AcOH), American Diagnostica) in aqueous buffer (10 mM Tris, 10 mM Hepes, 150 mM NaCl, 0.1% PEG; pH 7.4), and a microplate reader (Molecular Devices). Changes in absorbance at 405 nm were monitored (Softmax, Molecular Devices), upon addition of enzyme, both with and without inhibitor present at 37° C. over 30 minutes. […] Michaelis-Menton kinetics were applied to the initial reaction slopes. […] Michaelis-Menton kinetics were applied to the initial reaction slopes using the program K.Cat (Bio Metallics Inc.).

Bovine type 1 trypsin = target: T2, Bovine type 1 trypsin (Bos taurus, UniProt P00760); experiment: Trypsin-catalyzed hydrolysis of chromogenic substrate Spectrozyme TRY (in vitro enzyme assay); type: biochemical; conditions: 3.2 U/ml trypsin, 0.1-0.3 mM Spectrozyme TRY; for Ki: read-out: Trp Ki (listed in place of the IC50); for IC50: read-out: Trp IC50
T2 construct: purchased Sigma
T2 sequence (P00760 24-246): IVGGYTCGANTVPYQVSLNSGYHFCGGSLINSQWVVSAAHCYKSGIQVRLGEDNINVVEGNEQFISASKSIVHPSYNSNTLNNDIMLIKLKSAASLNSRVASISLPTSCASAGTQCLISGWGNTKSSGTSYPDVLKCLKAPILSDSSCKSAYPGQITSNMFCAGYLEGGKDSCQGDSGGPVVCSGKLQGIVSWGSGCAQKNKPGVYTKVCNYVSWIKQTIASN
Description: The compounds of the invention were tested for their ability to inhibit thrombin mediated hydrolysis. An in vitro enzyme assay was performed as well as an ex vivo assay. In addition, the compounds were tested in vitro for their ability to inhibit trypsin, as an indication of their selectivity.
Trypsin-catalyzed hydrolysis rates were measured using the same method as the thrombin procedure.
The compound numbers in the table correspond to the examples described hereinafter.

[1] = rat, in vivo, iv
Description: An ex vivo assay was conducted to determine the duration of action of the compounds of Formula I. For this i.v. assay male rats (Long Evans, 350-500 g) were implanted with a teflon cannulae via the femoral artery while under anesthesia (pentobarbital i.p., 35 mg/kg). […] The animals were allowed to recover for at least 24 h after the surgical procedure.
The test compound was dispersed in water and delivered to the animal (0.25 mL) via the femoral vein. […] A plasma sample was obtained by centrifuging the blood at 10,000 rpm for 5 min. This sample is analyzed for thrombin inhibition using the chromogenic assay, described below.
Datum was collected over a 30 min period and the initial rate of substrate hydrolysis (V0 (mOD/min)) was calculated with an analysis program (Softmax, Molecular Devices).
The time to half plasma elimination (t 1/2) was calculated from the slope of Vo vs. time, using the following equation: t 1/2=-1.6 slope.

| SMILES | IC50 (Bovine type 1 trypsin) [nM] | IC50 (human alpha-thrombin) [nM] | further results |
| --- | --- | --- | --- |
| CN(C)c1cccc2c(S(=O)(=O)N[C@@H](CCCNC(=N)N)C(=O)N3CCCCC3CCC(=O)c3nccs3)cccc12 (single isomer, unassigned) [Compound 26] |  |  | Ki (human alpha-thrombin): 38000 nM; Ki (Bovine type 1 trypsin): 180000 nM |
| CN(C)c1cccc2c(S(=O)(=O)N[C@@H](CCCNC(=N)N)C(=O)N3CCCCC3CCC(=O)c3nccs3)cccc12 (single isomer, unassigned) [Compound 27] |  |  | Ki (human alpha-thrombin): 1200 nM; Ki (Bovine type 1 trypsin): 12000 nM |
| CC1CNc2c(cccc2S(=O)(=O)N[C@@H](CCCNC(=N)N)C(=O)N2CC[C@@H](C)C[C@@H]2C(=O)O)C1 (stereo partly drawn) [Argatroban, reference compound] |  |  | Ki (Bovine type 1 trypsin): 2900 nM |
| CN[C@H](Cc1ccccc1)C(=O)N1CCC[C@H]1C(=O)N[C@H](CCCNC(=N)N)C(=O)c1nc2ccccc2s1 [Compound 2, N-METHYL-D-PHENYLALANYL-N-[4-[(AMINOIMINOMETHYL)AMINO]-1R-[(BENXOTHIAZOL-2- YL)CARBONYL]BUTYL]-L-PROLINAMIDE] |  |  | Ki (human alpha-thrombin): 0.9 nM |
| CN[C@H](Cc1ccccc1)C(=O)N1CCC[C@H]1C(=O)N[C@@H](CCCCNC(=N)N)C(=O)c1nc2ccccc2s1 [Compound 11, N-METHYL-D-PHENYLALANYL-N-[5-[(AMINOIMINOMETHYL)AMINO]-1S-[(BENXOTHIAZOL-2- YL)CARBONYL]PENTYL]-L-PROLINAMIDE] |  |  | Ki (human alpha-thrombin): 420 nM; Ki (Bovine type 1 trypsin): 6010 nM |
| CN[C@H](Cc1ccccc1)C(=O)N1CCC[C@H]1C(=O)N[C@@H](CCCNC(=N)N)C(=O)c1nc2ccc(C(=O)OC)cc2s1 [Compound 12, N-METHYL-D-PHENYLALANYL-N-[4-[(AMINOIMINOMETHYL)AMINO]-2S-[(6-METHOXYCARBON YLBENXOTHIAZOL-2-YL)CARBONYL]BUTYL]-L-PROLINAMIDE] | 3 |  | t1/2 (time to half plasma elimination) [1]: 43 min |
| CN[C@H](Cc1ccccc1)C(=O)N1CCC[C@H]1C(=O)N[C@@H](CCCNC(=N)N)C(=O)c1nc2ccc(C(=O)O)cc2s1 [Compound 13, N-METHYL-D-PHENYLALANYL-N-[4-[(AMINOIMINOMETHYL)AMINO]-1S-[(6-CARBOXYBENXOT HIAZOL-2-YL)CARBONYL]BUTYL]-L-PROLINAMIDE] | 2 |  | t1/2 (time to half plasma elimination) [1]: 25 min |
| CN[C@H](Cc1ccccc1)C(=O)N1CCC[C@H]1C(=O)N[C@@H](CCCNC(=N)N)C(=O)c1nc2ccc(C(N)=O)cc2s1 [Compound 14, N-METHYL-D-PHENYLALANYL-N-[4-[(AMINOIMINOMETHYL)AMINO]-1S-[(6-CARBOXAMIDOBE NXOTHIAZOL-2-YL)CARBONYL]BUTYL]-L-PROLINAMIDE] | 3 |  |  |
| CN[C@H](Cc1ccccc1)C(=O)N1CCC[C@H]1C(=O)N[C@@H](CCCNC(=N)N)C(=O)c1nc2ccc(CO)cc2s1 [Compound 15, N-METHYL-D-PHENYLALANYL-N-[4-[(AMINOIMINOMETHYL)AMINO]-1S-[(6-HYDROXYMETHYL BENXOTHIAZOL-2-YL)CARBONYL]BUTYL]-L-PROLINAMIDE] | 3 |  | t1/2 (time to half plasma elimination) [1]: 16 min |
| CN[C@H](Cc1ccccc1)C(=O)N1CCC[C@H]1C(=O)N[C@H](CCCNC(=N)N)C(=O)c1nc2ccc(CO)cc2s1 [Compound 16, N-METHYL-D-PHENYLALANYL-N-[4-[(AMINOIMINOMETHYL)AMINO]-1R-[(6-HYDROXYMETHYL BENXOTHIAZOL-2-YL)CARBONYL]BUTYL]-L-PROLINAMIDE] | 238 |  |  |
| CN[C@H](Cc1ccccc1)C(=O)N1CCC[C@H]1C(=O)N[C@@H](CCCNC(=N)N)C(=O)c1nc2ccc(F)cc2s1 [Compound 17, N-METHYL-D-PHENYLALANYL-N-[4-[(AMINOIMINOMETHYL)AMINO]-1S-[(6-FLUOROBENXOTH IAZOL-2-YL)CARBONYL]BUTYL]-L-PROLINAMIDE] | 4 |  | t1/2 (time to half plasma elimination) [1]: 8 min |
| CN[C@H](Cc1ccccc1)C(=O)N1CCC[C@H]1C(=O)N[C@@H](CCCNC(=N)N)C(=O)c1nc2ccc(F)cc2s1 [Compound 18, N-METHYL-D-PHENYLALANYL-N-[4-[(AMINOIMINOMETHYL)AMINO]-1S-[(6-FLUOROBENXOTH IAZOL-2-YL)CARBONYL]BUTYL]-L-PROLINAMIDE] | 130 |  |  |
| CCOC(=O)c1csc(C(=O)[C@H](CCCNC(=N)N)NC(=O)[C@@H]2CCCN2C(=O)[C@@H](Cc2ccccc2)NC)n1 [Compound 20, N-METHYL-D-PHENYLALANYL-N-[4-[(AMINOIMINOMETHYL)AMINO]-1S-[(4-ETHOXYCARBONY LTHIAZOL-2-YL)CARBONYL]BUTYL]-L-PROLINAMIDE] | 58 | 450 |  |
| CN[C@H](Cc1ccccc1)C(=O)N1CCC[C@H]1C(=O)N[C@@H](CCCNC(=N)N)C(=O)c1nccn1C [Compound 22] | 18400 | 1520 |  |
| CN[C@H](Cc1ccccc1)C(=O)N1CCC[C@H]1C(=O)N[C@@H](CCCNC(=N)N)C(=O)c1ccccn1 [Compound 23] | 238 | 928 |  |
| CN[C@H](Cc1ccccc1)C(=O)N1CCC[C@H]1C(=O)N[C@@H](CCCNC(=N)N)C(=O)c1nc2ccccc2c(=O)[nH]1 [Compound 24] | 14 | 106 |  |
| CN[C@H](CC1CCCCC1)C(=O)N1CCC[C@H]1C(=O)N[C@@H](CCCNC(=N)N)C(=O)c1nc2ccccc2s1 [Compound 29, N-METHYL-D-CYOLOHEXYLALANYL-N-[4-[(AMINOIMINOMETHYL)AMINO]-1S-[(BENXOTHIAZO L-2-YL)CARBONYL]BUTYL]-L-PROLINAMIDE] | 2 |  | t1/2 (time to half plasma elimination) [1]: 14 min |

| SMILES | IC50 (Bovine type 1 trypsin) [nM] | IC50 (human alpha-thrombin) [nM] | further results |
| --- | --- | --- | --- |
| N=C(N)NCCC[C@H](NC(=O)C1CCCC1)C(=O)c1nc2ccccc2s1 [Compound 31] | 80 |  |  |
| CN[C@H](Cc1ccc(F)cc1)C(=O)N1CCC[C@H]1C(=O)N[C@@H](CCCNC(=N)N)C(=O)c1nc2ccccc2s1 [Compound 32, N-METHYL-D-(4-FLUOROPHENYL)ALANYL-N-[4-[(AMINOIMINOMETHYL)AMINO]-1S-[(BENXO THIAZOL-2-YL)CARBONYL]BUTYL]-L-PROLINAMIDE] | 2 |  | t1/2 (time to half plasma elimination) [1]: 19 min |
| CNC(C(=O)N1CCCC1C(=O)NC(CCCNC(=N)N)C(=O)c1nc2ccccc2s1)c1ccccc1 [Compound 33, N-METHYL-D-PHENYLGLYCYL-N-[4-[(AMINOIMINOMETHYL)AMINO]-1S-[(BENXOTHIAZOL-2- YL)CARBONYL]BUTYL]-L-PROLINAMIDE] | 2 |  | t1/2 (time to half plasma elimination) [1]: 18 min |
| CN[C@H](Cc1ccccc1)C(=O)N1CCC[C@H]1C(=O)N[C@@H](Cc1ccccc1)C(=O)c1nc2ccccc2s1 [Compound 38] | 38700 | 29900 |  |
| CN[C@H](Cc1ccccc1)C(=O)N1CCC[C@H]1C(=O)N(C)[C@@H](CCCNC(=N)N)C(=O)c1nc2ccccc2s1 [Compound 40] | 7010 | 20500 |  |
| N=C(N)NCCC[C@H](NC(=O)[C@@H]1CCCN1C(=O)[C@H](N)Cc1ccccc1)C(=O)c1nc2ccccc2s1 [Compound 41, D-PHENYLALANYL-N-[4-[(AMINOIMINOMETHYL)AMINO]-1S-[(BENZOTHIAZOL-2-YL)CARBON YL]BUTYL]-L-PROLINAMIDE] | 1 |  |  |
| CN[C@H](Cc1ccccc1)C(=O)N1CCCC[C@H]1C(=O)N[C@@H](CCCNC(=N)N)C(=O)c1nc2ccccc2s1 [Compound 42, N-METHYL-D-PHENYLALANYL-N-[4-[(AMINOIMINOMETHYL)AMINO]-1S-[(BENZOTHIAZOL-2- YL)CARBONYL]BUTYL]-2S-PIPERIDINECARBOXAMIDE] | 2 |  |  |
| CNC1(C(=O)N2CCC[C@H]2C(=O)N[C@@H](CCCNC(=N)N)C(=O)c2nc3ccccc3s2)CCCCC1 [Compound 45, 1-(N-METHYLAMINO)-1-CYCLOHEXYLCARBONYL-N-[4-[(AMINOIMINOMETHYL)AMINO]-1S-[( BENZOTHIAZOL-2-YL)CARBONYL]BUTYL]-L-PROLINAMIDE] | 9 | 371 |  |
| N=C(N)NCCC[C@H](NC(=O)[C@@H]1CCCN1C(=O)C(N)(c1ccccc1)c1ccccc1)C(=O)c1nc2ccccc2s1 [Compound 46] | 3 | 15 |  |
| C[C@@](N)(Cc1ccccc1)C(=O)N1CCC[C@H]1C(=O)N[C@@H](CCCNC(=N)N)C(=O)c1nc2ccccc2s1 [Compound 47] | 4 |  |  |
| N=C(N)NCCC[C@H](NC(=O)[C@@H]1CCCN1)C(=O)c1nc2ccccc2s1 [Compound 48] | 684 |  |  |
| CN[C@H](Cc1ccccc1)C(=O)N1CCC[C@H]1C(=O)N[C@@H](CCCNC(=N)N)C(=O)c1nc2ccc(OC)cc2s1 [Compound 50, N-METHYL-D-PHENYLALANYL-N-[4-[(AMINOIMINOMETHYL)AMINO]-1S-[(6-METHOXYBENXOT HIAZOL-2-YL)CARBONYL]BUTYL]-L-PROLINAMIDE] |  |  | Ki (Bovine type 1 trypsin): 2 nM |
| CN[C@H](Cc1ccccc1)C(=O)N1CCC[C@H]1C(=O)N[C@@H](CCCNC(=N)N)C(=O)c1nc(C(=O)NCCc2ccccc2)cs1 [Compound 55] | 8.6 | 830 |  |
| CN[C@H](Cc1ccccc1)C(=O)N1CCC[C@H]1C(=O)N[C@H](CCCNC(=N)N)C(=O)c1nc(C(=O)NCCc2ccccc2)cs1 [Compound 56] | 27.9 | 21000 |  |
| CN[C@H](Cc1ccccc1)C(=O)N1CCC[C@H]1C(=O)N[C@@H](Cc1ccc(C(=N)N)cc1)C(=O)c1nc2ccccc2s1 [Compound 57] | 182 | 19600 |  |
| CN[C@H](Cc1ccccc1)C(=O)N1CCC[C@H]1C(=O)N[C@H](C=O)CCCNC(=N)N [reference compound] |  |  | Ki (Bovine type 1 trypsin): 3.9 nM |
